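Cells were grown in 96-well plates and exposed to each compound for 48 hours at five concentrations; endpoints were interpolated linearly between bracketing concentrations, or set to the highest concentration if not reached. The concentration for 50% growth inhibition is given as GI50. TGI: total growth inhibition.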
Key:
Assay in all cases: DTP human tumour cell line panel, 48 h
EKVX NSCLC = system: EKVX NSCLC
NCI-H522 lung = system: NCI-H522 lung
HOP-92 NSCLC = system: HOP-92 NSCLC
UO-31 renal = system: UO-31 renal
SK-OV-3 ovarian = system: SK-OV-3 ovarian
LOX IMVI melanoma = system: LOX IMVI melanoma
HCT-116 colon = system: HCT-116 colon
SNB-75 CNS = system: SNB-75 CNS
RXF 393 renal = system: RXF 393 renal
MDA-MB-435 = system: MDA-MB-435
OVCAR-8 ovarian = system: OVCAR-8 ovarian
TK-10 renal = system: TK-10 renal
MALME-3M melanoma = system: MALME-3M melanoma
SN12C renal = system: SN12C renal
UACC-62 melanoma = system: UACC-62 melanoma
MDA-MB-231 breast = system: MDA-MB-231 breast
U251 CNS = system: U251 CNS
IGROV1 ovarian = system: IGROV1 ovarian
BT-549 breast = system: BT-549 breast
NCI/ADR-RES ovarian = system: NCI/ADR-RES ovarian
SK-MEL-28 melanoma = system: SK-MEL-28 melanoma
DU-145 prostate = system: DU-145 prostate
SK-MEL-5 melanoma = system: SK-MEL-5 melanoma
T-47D breast = system: T-47D breast
NCI-H23 lung = system: NCI-H23 lung
OVCAR-5 ovarian = system: OVCAR-5 ovarian
SNB-19 CNS = system: SNB-19 CNS
HS 578T breast = system: HS 578T breast
HCC-2998 colon = system: HCC-2998 colon
HOP-62 NSCLC = system: HOP-62 NSCLC
HT29 colon = system: HT29 colon
RPMI-8226 leukemia = system: RPMI-8226 leukemia
PC-3 prostate = system: PC-3 prostate
SK-MEL-2 melanoma = system: SK-MEL-2 melanoma
SW-620 colon = system: SW-620 colon
SR leukemia = system: SR leukemia
A549 NSCLC = system: A549 NSCLC
CCRF-CEM leukemia = system: CCRF-CEM leukemia
786-0 renal = system: 786-0 renal
UACC-257 melanoma = system: UACC-257 melanoma
SF-295 CNS = system: SF-295 CNS
HCT-15 colon = system: HCT-15 colon
HL-60(TB) leukemia = system: HL-60(TB) leukemia
SF-539 CNS = system: SF-539 CNS
ACHN renal = system: ACHN renal
OVCAR-4 ovarian = system: OVCAR-4 ovarian
CAKI-1 renal = system: CAKI-1 renal
KM12 colon = system: KM12 colon
MCF7 breast = system: MCF7 breast
MOLT-4 leukemia = system: MOLT-4 leukemia
NCI-H460 lung = system: NCI-H460 lung
M14 melanoma = system: M14 melanoma
K-562 leukemia = system: K-562 leukemia
NCI-H226 lung = system: NCI-H226 lung
OVCAR-3 ovarian = system: OVCAR-3 ovarian
SF-268 CNS = system: SF-268 CNS
COLO 205 colon = system: COLO 205 colon

## C=C1C(=O)O[C@H]2[C@H]1CC/C(COC(=O)CCSSCCC(=O)OC/C1=C/CC[C@@]3(C)O[C@H]3[C@H]3OC(=O)C(=C)[C@@H]3CC1)=C\CC[C@@]1(C)O[C@@H]21
EKVX NSCLC
  GI50: 1.61 µM
  TGI: 3.47 µM
NCI-H522 lung
  GI50: 0.688 µM
  TGI: 2.27 µM
HOP-92 NSCLC
  GI50: 1.02 µM
  TGI: 2.54 µM
UO-31 renal
  GI50: 1.08 µM
  TGI: 2.28 µM
SK-OV-3 ovarian
  GI50: 6.67 µM
  TGI: 19 µM
LOX IMVI melanoma
  GI50: 1.6 µM
  TGI: 3.12 µM
HCT-116 colon
  GI50: 0.33 µM
  TGI: 1.24 µM
SNB-75 CNS
  GI50: 1.8 µM
  TGI: 3.48 µM
RXF 393 renal
  GI50: 0.247 µM
  TGI: 0.98 µM
MDA-MB-435
  GI50: 1.4 µM
  TGI: 3.07 µM
OVCAR-8 ovarian
  GI50: 1.26 µM
  TGI: 3.02 µM
TK-10 renal
  GI50: 1.62 µM
  TGI: 3.19 µM
MALME-3M melanoma
  GI50: 1.08 µM
  TGI: 2.54 µM
SN12C renal
  GI50: 1.14 µM
  TGI: 2.58 µM
UACC-62 melanoma
  GI50: 1.56 µM
  TGI: 3.16 µM
MDA-MB-231 breast
  GI50: 1.23 µM
  TGI: 2.66 µM
U251 CNS
  GI50: 1.41 µM
  TGI: 2.86 µM
IGROV1 ovarian
  GI50: 1.19 µM
  TGI: 2.66 µM
BT-549 breast
  GI50: 1.1 µM
  TGI: 2.33 µM
NCI/ADR-RES ovarian
  GI50: 2.86 µM
  TGI: 10.2 µM
SK-MEL-28 melanoma
  GI50: 1.49 µM
  TGI: 2.95 µM
DU-145 prostate
  GI50: 1.3 µM
  TGI: 2.57 µM
SK-MEL-5 melanoma
  GI50: 1.44 µM
  TGI: 2.78 µM
T-47D breast
  GI50: 1.2 µM
  TGI: 4.01 µM
NCI-H23 lung
  GI50: 1.73 µM
  TGI: 3.72 µM
OVCAR-5 ovarian
  GI50: 1.59 µM
  TGI: 3.16 µM
SNB-19 CNS
  GI50: 1.49 µM
  TGI: 3.16 µM
HS 578T breast
  GI50: 1.95 µM
  TGI: 7.45 µM
HCC-2998 colon
  GI50: 1.98 µM
  TGI: 3.93 µM
HOP-62 NSCLC
  GI50: 1.98 µM
  TGI: 4.64 µM
HT29 colon
  GI50: 0.819 µM
  TGI: 2.39 µM
RPMI-8226 leukemia
  GI50: 1.06 µM
  TGI: 3.9 µM
PC-3 prostate
  GI50: 1.33 µM
  TGI: 2.9 µM
SK-MEL-2 melanoma
  GI50: 1.93 µM
  TGI: 4.16 µM
SW-620 colon
  GI50: 0.458 µM
  TGI: 1.9 µM
SR leukemia
  GI50: 0.308 µM
  TGI: 2.77 µM
A549 NSCLC
  GI50: 1.99 µM
  TGI: 4.27 µM
CCRF-CEM leukemia
  GI50: 0.225 µM
  TGI: 1.19 µM
786-0 renal
  GI50: 1.28 µM
  TGI: 2.6 µM
UACC-257 melanoma
  GI50: 1.6 µM
  TGI: 3.43 µM
SF-295 CNS
  GI50: 3.5 µM
  TGI: 13.9 µM
HCT-15 colon
  GI50: 0.429 µM
  TGI: 1.76 µM
HL-60(TB) leukemia
  GI50: 0.448 µM
  TGI: 2.19 µM
SF-539 CNS
  GI50: 1.5 µM
  TGI: 2.91 µM
ACHN renal
  GI50: 0.897 µM
  TGI: 2.11 µM
OVCAR-4 ovarian
  GI50: 1.52 µM
  TGI: 3.12 µM
CAKI-1 renal
  GI50: 1.28 µM
  TGI: 2.54 µM
KM12 colon
  GI50: 1.83 µM
  TGI: 3.69 µM
MCF7 breast
  GI50: 0.426 µM
  TGI: 2.32 µM
MOLT-4 leukemia
  GI50: 0.437 µM
  TGI: 2.61 µM
NCI-H460 lung
  GI50: 1.59 µM
  TGI: 3.34 µM
M14 melanoma
  GI50: 1.34 µM
  TGI: 2.88 µM
K-562 leukemia
  GI50: 0.465 µM
  TGI: 2.85 µM
NCI-H226 lung
  GI50: 1.6 µM
  TGI: 3.34 µM
OVCAR-3 ovarian
  GI50: 0.65 µM
  TGI: 1.95 µM
SF-268 CNS
  GI50: 1.46 µM
  TGI: 3.08 µM
COLO 205 colon
  GI50: 1.16 µM
  TGI: 2.99 µM

Reference: PubChem BioAssay (NCI)
